Conditions: Liquid, Falling or rolling sphere viscometry

CCCCn1cc[n+](C)c1C.O=S(=O)([N-]S(=O)(=O)C(F)(F)F)C(F)(F)F
viscosity [mPa·s]
Conditions	10000 kPa	15000 kPa	25000 kPa	50000 kPa	75000 kPa	100000 kPa	125000 kPa	150000 kPa
313.15 K	55.9	59.5	67.3	90.7	120.9	159.8	210.1	275
343.15 K	19.5	20.5	22.7	28.8	36.3	45.5	56.9	70.9
363.15 K	12.4	13	14.3	17.9	22.1	26.9	32.4	38.7

— the NIST ThermoML archive (doi:10.1016/j.jct.2013.02.014)
